Earlier results, collected in patent publication US7491730B2, “Compositions useful as inhibitors of GSK-3” (Vertex Pharmaceuticals Incorporated, priority 2002, dated 2009).

Biological target: gamma secretase
Conditions: vendor value, Calbiochem catalog #565771; read-out: reported IC50

- IC50: 50 nM
Structure (SMILES): CC(C)C[C@H](NC(=O)[C@H](Cc1ccccc1)C[C@@H](O)[C@H](Cc1ccccc1)NC(=O)OC(C)(C)C)C(=O)N[C@@H](Cc1ccccc1)C(N)=O [Inhibitor X]
